Assay results reported in US10202361B2, “Pyridazinones as herbicides” (E I DU PONT DE NEMOURS AND COMPANY, priority 2014, dated 2019).

Columns and labels:
Type in all cases: in vivo
[1] = tested on: poinsettia, wild (wild poinsettia, Euphorbia heterophylla); assay: Test E pre-/postemergence greenhouse herbicide test; settings: scale 0 to 100
[2] = tested on: beggarticks (hairy beggarticks, Bidens pilosa); assay: as above; settings: scale 0 to 100
How it was run: (§1)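 Preemergence: seeds sown in silt loam soil and sprayed with test chemicals in a non-phytotoxic solvent mixture containing surfactant. Postemergence: plants at 1- to 4-leaf stage (2 to 18 cm) in peat/vermiculite medium treated with the same formulation. Visual rating after 14 to 21 d in greenhouse, 0 (no effect) to 100 (complete control) versus controls.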

[3] = tested on: barnyardgrass (Echinochloa crus-galli); assay: as above; settings: scale 0 to 100
How it was run: as §1

corn (Zea mays) = assay: as above; settings: scale 0 to 100
How it was run: as §1

[4] = tested on: pigweed, palmer (palmer pigweed, Amaranthus palmeri); assay: as above; settings: scale 0 to 100
How it was run: as §1

[5] = tested on: foxtail, giant (giant foxtail, Setaria faberii); assay: as above; settings: Preemergence, scale 0 to 100
How it was run: as §1

[6] = tested on: johnsongrass (Sorghum halepense); assay: as above; settings: Preemergence, scale 0 to 100
How it was run: as §1

[7] = tested on: blackgrass (Alopecurus myosuroides); assay: Test D pre-/postemergence controlled growth environment herbicide test; settings: scale 0 to 100
Text: (§2) Seeds of plant species selected from bluegrass (annual bluegrass, Poa annua), blackgrass (Alopecurus myosuroides), canarygrass (Phalaris minor), chickweed (common chickweed, Stellaria media), galium (catchweed bedstraw, Galium aparine), downy bromegrass (Bromus tectorum), field poppy (Papaver rhoeas), field violet (Viola arvensis), foxtail, green (green foxtail, Setaria viridis), deadnettle (henbit deadnettle, Lamium amplexicaule), ryegrass, Italian (Italian ryegrass, Lolium multiflorum), kochia (Kochia scoparia), lambsquarters (Chenopodium album), oilseed rape (Brassica napus), pigweed (Amaranthus retroflexus), chamomile (scentless chamomile, Matricaria inodora), Russian thistle (Salsola kali), speedwell (bird's-eye speedwell, Veronica persica), barley, spring (spring barley, Hordeum vulgare), wheat, spring (spring wheat, Triticum aestivum), buckwheat, wild (wild buckwheat, Polygonum convolvulus), mustard, wild (wild mustard, Sinapis arvensis), oat, wild (wild oat, Avena fatua), radish, wild (wild radish, Raphanus raphanistrum), windgrass (Apera spica-venti), barley, winter (winter barley, Hordeum vulgare), and wheat, winter (winter wheat, Triticum aestivum) were planted into a silt loam soil and treated preemergence with test chemicals formulated in a non-phytotoxic solvent mixture which included a surfactant.
(§3) At the same time, these species were planted in pots containing Redi-Earth® planting medium (Scotts Company, 14111 Scottslawn Road, Marysville, Ohio 43041) comprising spaghnum peat moss, vermiculite, wetting agent and starter nutrients and treated with postemergence applications of the test chemicals formulated in the same manner. Plants ranged in height from 2 to 18 cm (1- to 4-leaf stage). Treated plants and controls were maintained in a controlled growth environment for 14 to 21 d after which time all species were compared to controls and visually evaluated. Plant response ratings, summarized in Table D, are based on a scale of 0 to 100 where 0 is no effect and 100 is complete control. A dash (-) response means no test result.

[8] = tested on: Russian thistle (Salsola kali); assay: as above; settings: scale 0 to 100
Text: as §2, §3

## COc1cc(=O)n(-c2ccc(F)cc2)nc1Cc1ccnc(C(F)(F)F)c1 [Compound 17, 2-(4-fluorophenyl)-5-methoxy-6-[[2-(trifluoromethyl)-4-pyridinyl]methyl]-3 (2H)-pyridazinone]
[1]; Postemergence, 16 g ai/ha
  Plant response rating: Poinsettia, Wild: 20
[1]; Postemergence, 31 g ai/ha
  Plant response rating: Poinsettia, Wild: 30
[1]; Postemergence, 62 g ai/ha
  Plant response rating: Poinsettia, Wild: 40
[1]; Postemergence, 125 g ai/ha
  Plant response rating: Poinsettia, Wild: 40
[1]; Postemergence, 250 g ai/ha
  Plant response rating: Poinsettia, Wild: 50
[1]; Preemergence, 16 g ai/ha
  Plant response rating: Poinsettia, Wild: 20
[1]; Preemergence, 31 g ai/ha
  Plant response rating: Poinsettia, Wild: 20
[1]; Preemergence, 62 g ai/ha
  Plant response rating: Poinsettia, Wild: 30
[1]; Preemergence, 125 g ai/ha
  Plant response rating: Poinsettia, Wild: 40
[1]; Preemergence, 250 g ai/ha
  Plant response rating: Poinsettia, Wild: 100
[2]; Postemergence, 16 g ai/ha
  Plant response rating: Beggarticks: 20
[2]; Postemergence, 31 g ai/ha
  Plant response rating: Beggarticks: 30
[2]; Postemergence, 62 g ai/ha
  Plant response rating: Beggarticks: 30
[2]; Postemergence, 125 g ai/ha
  Plant response rating: Beggarticks: 35
[2]; Postemergence, 250 g ai/ha
  Plant response rating: Beggarticks: 55
[2]; Preemergence, 16 g ai/ha
  Plant response rating: Beggarticks: 0
[2]; Preemergence, 31 g ai/ha
  Plant response rating: Beggarticks: 0
[2]; Preemergence, 62 g ai/ha
  Plant response rating: Beggarticks: 0
[2]; Preemergence, 125 g ai/ha
  Plant response rating: Beggarticks: 5
[2]; Preemergence, 250 g ai/ha
  Plant response rating: Beggarticks: 20
[3]; Postemergence, 16 g ai/ha
  Plant response rating: Barnyardgrass: 0
[3]; Postemergence, 31 g ai/ha
  Plant response rating: Barnyardgrass: 10
[3]; Postemergence, 62 g ai/ha
  Plant response rating: Barnyardgrass: 20
[3]; Postemergence, 125 g ai/ha
  Plant response rating: Barnyardgrass: 20
[3]; Postemergence, 250 g ai/ha
  Plant response rating: Barnyardgrass: 65
[3]; Preemergence, 16 g ai/ha
  Plant response rating: Barnyardgrass: 0
[3]; Preemergence, 31 g ai/ha
  Plant response rating: Barnyardgrass: 20
[3]; Preemergence, 62 g ai/ha
  Plant response rating: Barnyardgrass: 35
[3]; Preemergence, 125 g ai/ha
  Plant response rating: Barnyardgrass: 80
[3]; Preemergence, 250 g ai/ha
  Plant response rating: Barnyardgrass: 80
Corn (Zea mays); Postemergence, 16 g ai/ha
  Plant response rating: Corn: 0
Corn (Zea mays); Postemergence, 31 g ai/ha
  Plant response rating: Corn: 10
Corn (Zea mays); Postemergence, 62 g ai/ha
  Plant response rating: Corn: 10
Corn (Zea mays); Postemergence, 125 g ai/ha
  Plant response rating: Corn: 35
Corn (Zea mays); Postemergence, 250 g ai/ha
  Plant response rating: Corn: 65
Corn (Zea mays); Preemergence, 16 g ai/ha
  Plant response rating: Corn: 0
Corn (Zea mays); Preemergence, 31 g ai/ha
  Plant response rating: Corn: 0
Corn (Zea mays); Preemergence, 62 g ai/ha
  Plant response rating: Corn: 30
Corn (Zea mays); Preemergence, 125 g ai/ha
  Plant response rating: Corn: 65
Corn (Zea mays); Preemergence, 250 g ai/ha
  Plant response rating: Corn: 80
[4]; Postemergence, 16 g ai/ha
  Plant response rating: Pigweed, Palmer: 20
[4]; Postemergence, 31 g ai/ha
  Plant response rating: Pigweed, Palmer: 20
[4]; Postemergence, 62 g ai/ha
  Plant response rating: Pigweed, Palmer: 30
[4]; Postemergence, 125 g ai/ha
  Plant response rating: Pigweed, Palmer: 80
[4]; Postemergence, 250 g ai/ha
  Plant response rating: Pigweed, Palmer: 100
[4]; Preemergence, 16 g ai/ha
  Plant response rating: Pigweed, Palmer: 0
[4]; Preemergence, 31 g ai/ha
  Plant response rating: Pigweed, Palmer: 0
[4]; Preemergence, 62 g ai/ha
  Plant response rating: Pigweed, Palmer: 25
[4]; Preemergence, 125 g ai/ha
  Plant response rating: Pigweed, Palmer: 80
[4]; Preemergence, 250 g ai/ha
  Plant response rating: Pigweed, Palmer: 100
[5]; 16 g ai/ha
  Plant response rating: Foxtail, Giant: 0
[5]; 31 g ai/ha
  Plant response rating: Foxtail, Giant: 40
[5]; 62 g ai/ha
  Plant response rating: Foxtail, Giant: 65
[5]; 125 g ai/ha
  Plant response rating: Foxtail, Giant: 100
[5]; 250 g ai/ha
  Plant response rating: Foxtail, Giant: 100
[6]; 16 g ai/ha
  Plant response rating: Johnsongrass: 0
[6]; 31 g ai/ha
  Plant response rating: Johnsongrass: 10
[6]; 62 g ai/ha
  Plant response rating: Johnsongrass: 35
[6]; 125 g ai/ha
  Plant response rating: Johnsongrass: 75
[6]; 250 g ai/ha
  Plant response rating: Johnsongrass: 90
[7]; Postemergence, 31 g ai/ha
  Plant response rating: 10
[7]; Postemergence, 62 g ai/ha
  Plant response rating: 10
[7]; Postemergence, 125 g ai/ha
  Plant response rating: 10
[7]; Postemergence, 250 g ai/ha
  Plant response rating: 20
[7]; Postemergence, 500 g ai/ha
  Plant response rating: 50
[7]; Preemergence, 31 g ai/ha
  Plant response rating: 0
[7]; Preemergence, 62 g ai/ha
  Plant response rating: 10
[7]; Preemergence, 125 g ai/ha
  Plant response rating: 30
[7]; Preemergence, 250 g ai/ha
  Plant response rating: 60
[7]; Preemergence, 500 g ai/ha
  Plant response rating: 90
[8]; Postemergence, 31 g ai/ha
  Plant response rating: 30
[8]; Postemergence, 62 g ai/ha
  Plant response rating: 30
[8]; Postemergence, 125 g ai/ha
  Plant response rating: 100
[8]; Postemergence, 250 g ai/ha
  Plant response rating: 100
[8]; Postemergence, 500 g ai/ha
  Plant response rating: 100
[8]; Preemergence, 31 g ai/ha
  Plant response rating: 0
[8]; Preemergence, 62 g ai/ha
  Plant response rating: 100
[8]; Preemergence, 125 g ai/ha
  Plant response rating: 100
[8]; Preemergence, 250 g ai/ha
  Plant response rating: 100
[8]; Preemergence, 500 g ai/ha
  Plant response rating: 100
